The source of these data is patent US9205091B2, “Diazeniumdiolated compounds, pharmaceutical compositions, and method of treating cancer” (The United States of America, as represented by the …, priority 2009, dated 2015).

The test system of one series is H1373. Kind of series: CellTiter 96 MTT cell proliferation assay (Example 9). It is filed as cell-based, human. The method, then:
(§1) Cell lines derived from human non-small cell lung cancers are obtained from American Type Culture Collection (ATCC, Manassas, Va.), and are designated by their NCI numbers. Cells are maintained in RPMI 1640 medium (Gibco, Invitrogen, Carlsbad, Calif.), supplemented with 10% fetal calf serum (Gemini Bio-Products, Sacramento, Calif.), 100 U/mL penicillin/streptomycin, and 2 mM glutamine at 37° C. and 5% CO2.
(§2) For proliferation assays cells are seeded at 2×10^4/well in 96-well plates, allowed to adhere for 24 hrs, and then are treated with the drug or DMSO as a control for 48 hours. […] Compounds are prepared as 10 mM stock solution in dimethyl sulfoxide (Sigma, St. Louis, Mo.). Increasing drug concentrations in 10 μL of phosphate-buffered saline (PBS) are added to 100 μL of the culture medium and incubated at 37° C. for 72 h. The CellTiter 96 non-radioactive cell proliferation assay (MTT assay, Promega, Madison, Wis.), is performed according to the manufacturer's protocol. Each compound concentration is represented in six repeats, and the screening is performed as at least two independent experiments. IC50 values are calculated using Sigma Plot software (Systat Software).

For another series, the system named is H2122. The description is as above. The class given is cell-based, human. How it is done: as §1, §2
Series [1] deals with H1703 cells. The series can be described thus: Total glutathione / GSSG content after JS-K treatment. It is filed as cell-based, human. As to conditions: JS-K 1 μM, 1 h. The method, then:
(§3) H1703 or H1944 cells are plated in 6-well plates at 6×10^5 per well. Cells are treated with JS-K for 1 h at 1 μM (H1703) or 10 μM (H1944). After treatment, cells are washed with PBS, scraped into PBS and collected by centrifugation at 800 g for 10 min. The pellets are resuspended in 80 μL of 10 mM HCl and lysed by two successive rounds of freeze and thawing. Twenty μL of a 5% 5-sulfosalicylic acid solution is added to the lysate. The precipitate is removed by centrifugation at 8,000 g for 10 min, and the supernatant is analyzed for total glutathione content using total glutathione quantification kit (Dojindo, Rockville, Md.) according to the manufacturer's protocol. To measure GSSG concentration, cells are treated and lysed in accordance with the procedure above. The lysate is then neutralized with 0.1 M NaOH and treated with 4-vinylpyridine at a final concentration of 50 mM for 30 min.

Series [2] concerns H1944 cells. Described as above. It is filed as cell-based, human. As to conditions: JS-K 10 μM, 1 h. How it is done: as §3
Series [3] relates to H1703 cells. Kind of series: H1703 xenograft in athymic NCr-nu/nu mice, JS-K (Example 3). The class given is in vivo. As to conditions: 6 μmol/kg i.v., three times a week for three weeks. How it is done: (§4) H1944 or H1703 cells are injected at 5×10^6 s.c. into a flank of 7-week-old female athymic NCr-nu/nu mice (Charles River, Wilmington, Mass.). The drug injections are initiated when the tumors reached 2×2×2 mm (typically 3-4 weeks). JS-K is formulated in Pluronic P123 (P123) (BASF, Florham Park, N.J.) micelles. Animals are treated three times a week for three weeks with i.v. tail vein injections of either vehicle (2.25% P123 in PBS) or JS-K (6 μmol/kg in the vehicle). Tumors are measured using a caliper twice a week, and the tumor volumes are calculated using a formula for ellipsoid volume, π/6×L×W×H (Tomayko and Reynolds, 1989). The non-parametric Mann-Whitney test is utilized for statistical comparisons of tumor volumes at each time point. Body weights are taken before each drug injection. Animals are sacrificed 2 h after the last drug injection. Blood is collected by cardiac puncture under isoflurane anesthesia, for testing for cytokines. Cytokines in serum are measured using a mouse Th1/2 multiplex assay (Meso Scale Discovery, Gaithersburg, Md.), according to the manufacturer's protocol. There were 9-13 mice/group at termination.

The test system of series [4] is H1944 cells. Kind of series: H1944 xenograft in athymic NCr-nu/nu mice, JS-K (Example 3). The class given is in vivo. As to conditions: 6 μmol/kg i.v., three times a week for three weeks. The method, then: as §4
Series [5] concerns IL-1β, IL-2, IL-4, IL-5, IL-10, IL-12t, IFNγ or TNFα. The series can be described thus: Serum cytokines, mouse Th1/2 multiplex assay. The class given is in vivo, mice. As to conditions: serum at termination; 6 μmol/kg i.v., three times a week for three weeks. The method, then: as §4
The subject of series [6] is H1703 cells. The series can be described thus: H1703 xenograft in athymic NCr-nu/nu mice, tumor weights (Example 10). The settings on record: 6 micromols/kg i.v., three times a week for three weeks. It is filed as in vivo. How it is done: H1703 cells are harvested at 80% confluence, washed with PBS, and suspended in PBS. The cells are injected at 5×10^6 s.c. into a flank of 7-week-old female athymic NCr-nu/nu mice (Charles River). […] Animals are treated three times a week for three weeks with i.v. tail vein injections of either vehicle (2.25% P-123 in PBS) or 1 or 2 (6 micromols/kg in the vehicle) or 6 (8 micromols/kg). Body weights are taken before each drug injection. Animals are sacrificed two hours after the last drug injection and the tumors are excised and weighed. There are 13-15 mice/group at termination. The non-parametric Mann-Whitney test is utilized for statistical comparisons of tumor weights.

Series [7] has as its system H1703 cells. Kind of series: Intracellular nitric oxide, DAF-FM diacetate. The class given is cell-based, human. The settings on record: 1 μM, up to 60 min. How it is done:
(§5) Cells growing on 6-well plates are loaded with 2.5 μM DAF-FM diacetate in HBSS at 37° C. and 5% CO2. After 30 min of incubation the cells are rinsed with HBSS to remove excess probe, and JS-K in fresh HBSS is added to the cells at 1 μM final concentration. After 30 or 60 min incubation the fluorescence of the benzotriazole derivative formed on DAF-FM's reaction with aerobic NO is analyzed using a Perkin Elmer LS50B luminescence spectrometer with the excitation source at 495 nm and emission at 515 nm. All experiments are performed at least three times, each time in triplicate.

In series [8] the test system is H1944 cells. The series can be described thus: Intracellular nitric oxide, DAF-FM diacetate. The class given is cell-based, human. The settings on record: 1 μM, up to 60 min. How it is done: as §5
Series [9] concerns H1703 cells. The series can be described thus: Intracellular ROS/RNS, CM-H2DCF-DA (DCF fluorescence). As to conditions: up to 60 min. It is filed as cell-based, human. How it is done: (§6) Intracellular level of reactive oxygen/nitrogen species is quantified by the oxidation of the ROS/RNS-sensitive fluorophore 5-(and-6)-chloromethyl-2′,7′-dichlorodihydrofluorescein diacetate (CM-H2DCF-DA) (Invitrogen, Carlsbad, Calif.). Cells growing on 6-well plates (6×10^5/well) are loaded with 5 μM CM-H2DCF-DA in Hanks' balanced salt solution (HBSS) at 37° C. and 5% CO2. After 30 min of incubation, HBSS containing the probe is removed, cells are rinsed with HBSS and 3 mL of fresh HBSS is added to each well followed by addition of JS-K or DMSO as a control. After 30 min or 60 min the cells are collected by scraping in HBSS and 2′,7′-dichlorofluorescein (DCF) fluorescence is measured using a Perkin Elmer LS50B luminescence spectrometer with the excitation source at 488 nm and emission at 530 nm.

The test system of series [10] is H1944 cells. The description is as above. It is filed as cell-based, human. The settings on record: up to 60 min. The method, then: as §6

On to `CCOC(=O)N1CCN(/[N+]([O-])=N/Oc2ccc([N+](=O)[O-])cc2[N+](=O)[O-])CC1` [Compound 1], for which the concentration for half-maximal inhibition (IC50) – broadly, the midpoint of a concentration-inhibition curve – worked out at 0.86 µM in the series with H1373 and 3.17 µM with H2122. Also, the “GSH μmol/mg protein” value is listed as 1.27 μmol/mg protein in the series on H1703 cells [1] and 0.13 μmol/mg protein in the series with H1944 cells [2]. In addition, the “GSSG μmol/mg protein” value in the series on H1703 cells [1] was found to be 0.042 μmol/mg protein; in the series with H1944 cells [2] it was 0.014 μmol/mg protein. For the same molecule, the “growth of xenografted tumor cells vs vehicle” value in the series on H1703 cells [3] and in the series on H1944 cells [4] was “significantly reduces growth” throughout. Further, the “serum cytokine levels, treated vs control groups” value in series [5] was “no significant differences”. Besides, the “growth of H1703 human NSCLC cells in vivo vs vehicle” value with H1703 cells [6] was “significantly reduced growth”. The “reduction of the tumor weights” value with H1703 cells [6] (vs vehicle) came out at 49%. Moreover, the “intracellular NO” value in the series with H1703 cells [7] and in the series on H1944 cells [8] was “increase” each time. The DCF-reactive material entry with H1703 cells [9] is reported as “increase”; in the series on H1944 cells [10], “not”.
